Measured values: ChEMBL document CHEMBL1201862, “PubChem BioAssay data set” (2004)
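Exposure lasted 48 hours, with cells grown in 96-well plates and compounds tested at five concentrations. GI50 is the concentration that inhibits growth by half.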 The source made the active and inactive calls. Rule as the data show it: active = GI50 up to about 1.1 µM and inactive = higher.

Key:
Assay in all cases: NCI-60 cell line screen, 48 h
SF-539 = tested on: SF-539
SK-OV-3 = tested on: SK-OV-3
SNB-75 = tested on: SNB-75
IGROV-1 = tested on: IGROV-1
HL-60 = tested on: HL-60
UACC-62 = tested on: UACC-62
CCRF-CEM = tested on: CCRF-CEM
DMS-114 = tested on: DMS-114
CAKI-1 = tested on: CAKI-1
ACHN = tested on: ACHN
A498 = tested on: A498
SK-MEL-28 = tested on: SK-MEL-28
M14 = tested on: M14
786-0 = tested on: 786-0
Malme-3M = tested on: Malme-3M
DLD-1 = tested on: DLD-1
NCI-H522 = tested on: NCI-H522
DMS-273 = tested on: DMS-273
OVCAR-4 = tested on: OVCAR-4
SK-MEL-2 = tested on: SK-MEL-2
HCT-116 = tested on: HCT-116
XF498 = tested on: XF498
HCC 2998 = tested on: HCC 2998
K562 = tested on: K562
COLO 205 = tested on: COLO 205
SN12C = tested on: SN12C
RPMI-8226 = tested on: RPMI-8226
SF-268 = tested on: SF-268
UO-31 = tested on: UO-31
MOLT-4 = tested on: MOLT-4
HOP-92 = tested on: HOP-92
NCI-H460 = tested on: NCI-H460
NCI-H226 = tested on: NCI-H226
HOP-62 = tested on: HOP-62
HCT-15 = tested on: HCT-15
LXFL 529 = tested on: LXFL 529
M19-MEL = tested on: M19-MEL
SR = tested on: SR
RXF 631 = tested on: RXF 631
NCI-H23 = tested on: NCI-H23
LOX IMVI = tested on: LOX IMVI
EKVX = tested on: EKVX
SW-620 = tested on: SW-620
SNB-78 = tested on: SNB-78
UACC-257 = tested on: UACC-257
OVCAR-5 = tested on: OVCAR-5
OVCAR-3 = tested on: OVCAR-3
SF-295 = tested on: SF-295
KM12 = tested on: KM12
OVCAR-8 = tested on: OVCAR-8
A549 = tested on: A549
TK-10 = tested on: TK-10
RXF 393 = tested on: RXF 393
HT-29 = tested on: HT-29
KM-20L2 = tested on: KM-20L2
SK-MEL-5 = tested on: SK-MEL-5
U-251 = tested on: U-251
SNB-19 = tested on: SNB-19

SMILES: Cc1[nH]c(=O)nc(N(CCO)/N=C/c2ccccc2Cl)c1C(=O)Nc1cc(Cl)cc(Cl)c1
- GI50 (SF-539): 24.5 µM (inactive)
- GI50 (SK-OV-3): 20.4 µM (inactive)
- GI50 (SNB-75): 17.7 µM (inactive)
- GI50 (IGROV-1): > 100 µM (inactive)
- GI50 (HL-60): > 100 µM (inactive)
- GI50 (UACC-62): > 100 µM (inactive)
- GI50 (CCRF-CEM): 64.1 µM (inactive)
- GI50 (DMS-114): 41.2 µM (inactive)
- GI50 (CAKI-1): 45.4 µM (inactive)
- GI50 (ACHN): 29.2 µM (inactive)
- GI50 (A498): 24.6 µM (inactive)
- GI50 (SK-MEL-28): 36.1 µM (inactive)
- GI50 (M14): 67.3 µM (inactive)
- GI50 (786-0): 20.1 µM (inactive)
- GI50 (Malme-3M): > 10 µM (inactive)
- GI50 (DLD-1): 53.1 µM (inactive)
- GI50 (NCI-H522): 23.1 µM (inactive)
- GI50 (DMS-273): 43.8 µM (inactive)
- GI50 (OVCAR-4): 31.6 µM (inactive)
- GI50 (SK-MEL-2): 48.9 µM (inactive)
- GI50 (HCT-116): 23 µM (inactive)
- GI50 (XF498): > 100 µM (inactive)
- GI50 (HCC 2998): 86.5 µM (inactive)
- GI50 (K562): 37.3 µM (inactive)
- GI50 (COLO 205): > 100 µM (inactive)
- GI50 (SN12C): 43.7 µM (inactive)
- GI50 (RPMI-8226): 40.2 µM (inactive)
- GI50 (SF-268): 31.8 µM (inactive)
- GI50 (UO-31): 43.4 µM (inactive)
- GI50 (MOLT-4): 77.3 µM (inactive)
- GI50 (HOP-92): 23.9 µM (inactive)
- GI50 (NCI-H460): 27.9 µM (inactive)
- GI50 (NCI-H226): 23.1 µM (inactive)
- GI50 (HOP-62): 26.5 µM (inactive)
- GI50 (HCT-15): > 100 µM
- GI50 (LXFL 529): 35.2 µM (inactive)
- GI50 (M19-MEL): > 100 µM (inactive)
- GI50 (SR): 46.1 µM (inactive)
- GI50 (RXF 631): 29.2 µM (inactive)
- GI50 (NCI-H23): 34.9 µM (inactive)

SMILES: C/C(CC(=O)Nc1ccc(C)c(C)c1)=N\NC(N)=S
- GI50 (SF-539): > 100 µM (inactive)
- GI50 (SK-OV-3): > 100 µM (inactive)
- GI50 (SNB-75): > 100 µM (inactive)
- GI50 (IGROV-1): > 100 µM (inactive)
- GI50 (LOX IMVI): > 100 µM (inactive)
- GI50 (HL-60): > 100 µM (inactive)
- GI50 (UACC-62): > 100 µM (inactive)
- GI50 (EKVX): > 100 µM (inactive)
- GI50 (SW-620): > 100 µM (inactive)
- GI50 (CCRF-CEM): > 100 µM (inactive)
- GI50 (DMS-114): > 100 µM (inactive)
- GI50 (ACHN): > 100 µM (inactive)
- GI50 (SNB-78): > 100 µM (inactive)
- GI50 (UACC-257): > 100 µM (inactive)
- GI50 (SK-MEL-28): > 100 µM (inactive)
- GI50 (M14): > 100 µM (inactive)
- GI50 (OVCAR-5): > 100 µM (inactive)
- GI50 (OVCAR-3): > 100 µM (inactive)
- GI50 (786-0): > 100 µM (inactive)
- GI50 (Malme-3M): > 100 µM (inactive)
- GI50 (DLD-1): > 100 µM (inactive)
- GI50 (NCI-H522): > 100 µM (inactive)
- GI50 (DMS-273): > 100 µM (inactive)
- GI50 (SF-295): > 100 µM (inactive)
- GI50 (SK-MEL-2): > 100 µM (inactive)
- GI50 (KM12): > 100 µM (inactive)
- GI50 (HCT-116): > 100 µM (inactive)
- GI50 (OVCAR-8): > 100 µM (inactive)
- GI50 (HCC 2998): > 100 µM (inactive)
- GI50 (A549): > 100 µM (inactive)
- GI50 (K562): > 100 µM (inactive)
- GI50 (TK-10): > 100 µM (inactive)
- GI50 (COLO 205): > 100 µM (inactive)
- GI50 (RPMI-8226): > 100 µM (inactive)
- GI50 (SF-268): > 100 µM (inactive)
- GI50 (UO-31): > 100 µM (inactive)
- GI50 (MOLT-4): > 100 µM (inactive)
- GI50 (HOP-92): > 100 µM (inactive)
- GI50 (NCI-H460): > 100 µM (inactive)
- GI50 (NCI-H226): > 100 µM (inactive)
- GI50 (RXF 393): > 100 µM (inactive)
- GI50 (HOP-62): > 100 µM (inactive)
- GI50 (HT-29): > 100 µM (inactive)
- GI50 (LXFL 529): > 100 µM (inactive)
- GI50 (KM-20L2): > 100 µM (inactive)
- GI50 (SK-MEL-5): > 100 µM (inactive)
- GI50 (U-251): > 100 µM (inactive)
- GI50 (RXF 631): > 100 µM (inactive)
- GI50 (NCI-H23): > 100 µM (inactive)

SMILES: O=C1c2ccccc2C(=O)N1C/C=N/NS(=O)(=O)c1ccc(Cl)cc1
- GI50 (SF-539): > 100 µM (inactive)
- GI50 (SNB-75): 66.1 µM (inactive)
- GI50 (IGROV-1): > 100 µM (inactive)
- GI50 (LOX IMVI): > 100 µM (inactive)
- GI50 (HL-60): > 100 µM (inactive)
- GI50 (UACC-62): > 100 µM (inactive)
- GI50 (EKVX): > 100 µM (inactive)
- GI50 (SW-620): > 100 µM (inactive)
- GI50 (CCRF-CEM): > 100 µM (inactive)
- GI50 (DMS-114): > 100 µM (inactive)
- GI50 (CAKI-1): > 100 µM (inactive)
- GI50 (ACHN): > 100 µM (inactive)
- GI50 (A498): > 100 µM (inactive)
- GI50 (UACC-257): > 100 µM (inactive)
- GI50 (M14): > 100 µM (inactive)
- GI50 (786-0): > 100 µM (inactive)
- GI50 (Malme-3M): > 100 µM (inactive)
- GI50 (DLD-1): > 100 µM (inactive)
- GI50 (NCI-H522): > 100 µM (inactive)
- GI50 (DMS-273): > 100 µM (inactive)
- GI50 (OVCAR-4): > 100 µM (inactive)
- GI50 (SF-295): > 100 µM (inactive)
- GI50 (SK-MEL-2): > 100 µM (inactive)
- GI50 (HCT-116): > 100 µM (inactive)
- GI50 (OVCAR-8): > 100 µM (inactive)
- GI50 (XF498): > 100 µM (inactive)
- GI50 (HCC 2998): > 100 µM (inactive)
- GI50 (A549): > 100 µM (inactive)
- GI50 (SNB-19): > 100 µM (inactive)
- GI50 (K562): > 100 µM (inactive)
- GI50 (TK-10): > 100 µM (inactive)
- GI50 (COLO 205): > 100 µM (inactive)
- GI50 (SN12C): > 100 µM (inactive)
- GI50 (RPMI-8226): > 100 µM (inactive)
- GI50 (SF-268): > 100 µM (inactive)
- GI50 (UO-31): > 100 µM (inactive)
- GI50 (MOLT-4): > 100 µM (inactive)
- GI50 (NCI-H460): > 100 µM (inactive)
- GI50 (NCI-H226): 31.7 µM (inactive)
- GI50 (HOP-62): > 100 µM (inactive)
- GI50 (HCT-15): > 100 µM
- GI50 (HT-29): > 100 µM (inactive)
- GI50 (LXFL 529): > 100 µM (inactive)
- GI50 (KM-20L2): > 100 µM (inactive)
- GI50 (SK-MEL-5): > 100 µM (inactive)
- GI50 (U-251): > 100 µM (inactive)
- GI50 (M19-MEL): > 100 µM (inactive)
- GI50 (SR): > 100 µM (inactive)
- GI50 (RXF 631): > 100 µM (inactive)
- GI50 (NCI-H23): > 100 µM (inactive)
